{"source": "paper PMC2580030", "about": "(PLoS ONE, 2008)", "biological_target": "T1, HLA-DR1 (Homo sapiens, UniProt P01903+P01911, A100R/D57E/F55L/F60I/F76Y/I96L/L162R/M171V/P40L/Q125E/R42F/V115G/Y59C)", "T1 construct": "made in house; host or cells: stably transfected Drosophila S2 insect cell lines (DR1 and DM separately)", "assay_type": "binding", "data": [{"sequence": "PVSKMRMATPLLMQA [CLIP, residues 87–101 of the CLIP peptide]", "values": [{"measurement": "largest CLIP/DR1 complex dissociation measured", "result": "~55", "unit": "%"}, {"measurement": "t 1/2 of CLIP dissociation from DR1", "result": "approximately 80 min"}]}]}
